Reference: PMC11148080, “Ru(II)-based complexes containing 2-thiouracil derivatives suppress liver cancer stem cells by targeting NF-κB and Akt/mTOR signaling” (Cell Death Discovery, 2024)
Values joined by “and” are separate entries in the source; they are usually repeats but may differ in a detail not shown here. Equal values may be shown once.

Legend:
[1] = system: HepG2 cells; experiment: qPCR array gene expression; format: cell-based, human; design: key to RQ MTOR / RQ GSTP1 / RQ TXN / RQ TXNRD1 / RQ CTSS / RQ TOP2B / RQ NFKB1 / RQ HDAC1 / RQ AURKC / RQ NTN3 / RQ HDAC6 / RQ TNKS: RQ by 2^-ΔΔCT, fold vs 0.2% DMSO calibrator (=1); key to RQ BCL2 / RQ BIRC5 / RQ ERBB2 / RQ ERBB3 / RQ IGF1R / RQ CTSD / RQ ESR1 / RQ CDC25A / RQ HIF1A / RQ CDK9 / RQ MDM2 / RQ TP53 / RQ KRAS / RQ HDAC11 / RQ HDAC8: fold change by 2^-ΔΔCT vs 0.2% DMSO calibrator (=1); details: 12 h; 8 µM complex 1, 6 µM complex 2
Description: Total RNA was extracted using the RNeasy Plus Mini Kit (Qiagen; Hilden, Germany) following the manufacturer’s instructions. A NanoDrop® 1000 spectrophotometer (Thermo Fisher Scientific, Waltham, Massachusetts, USA) was used to quantify and assess the purity of the RNA. Reverse transcription was performed using the Superscript VILOTM enzyme (Invitrogen Corporation; Waltham, MA, USA), and a TaqMan® array human cancer drug target 96-well plate, fast (ID RPRWENH, Applied BiosystemsTM, Foster City, CA, USA) was used for the gene expression study by qPCR (ABI ViiA7, Applied Biosystems instrument). The cycle conditions were 2 min at 50 °C, 10 min at 95 °C, and 40 cycles of 15 s at 95 °C and 1 min at 60 °C. All the experiments were conducted under DNase/RNase-free conditions. The 2^-ΔΔCT method was used to calculate the relative quantification (RQ) of mRNA expression using Gene Expression SuiteTM Software (Applied BiosystemsTM). Cells treated with the negative control (0.2% DMSO) were used as a calibrator, and the RQs of the reference genes GAPDH, UBC and RPLP0 were used to normalize the responses.

[2] = system: HepG2 cells; experiment: NF-κB and Akt/mTOR signaling protein levels by flow cytometry; format: cell-based, human; details: HepG2, 24 h
Description: To stain intracellular proteins, the cells were harvested and resuspended in 0.5-1 mL of 4% formaldehyde for 10 min at 37 °C. The tube was then placed on ice for 1 min, after which the cells were prechilled and permeabilized using a sequence of 100% (30 min) to 90% (30 min) methanol with gentle mixing. After washing with incubation buffer (0.5% bovine serum albumin in PBS), primary antibodies were added and incubated for 1 h at room temperature. Finally, the cells were washed with PBS, and flow cytometry was used to measure cell fluorescence.
For all flow cytometry analyses, cellular fluorescence was measured using a BD LSRFortessa cytometer, BD FACSDiva software (BD Biosciences) and FlowJo software 10 (FlowJo LLC; Ashland, OR, USA). A minimum of 10,000 events were obtained per sample for intracellular staining, and a minimum of 30,000 events per sample were acquired for cell surface protein staining. Doublets were removed using FSC-A vs FCS-H and SCC-A vs SCC-H. Cellular debris was excluded from the analysis.

[3] = Toxicity parameters in xenografted mice; format: in vivo, C.B-17 SCID mice; details: 2 or 4 mg/kg i.p., 21 days
From the text: All animals were weighed at the start and end of the experiment to assess toxicological aspects. The animals were continuously examined for anomalies during the trial. The livers, kidneys, lungs, and hearts were removed and weighed before being preserved in 4% formaldehyde, dehydrated in a graded alcohol series, cleaned in xylene, and embedded in paraffin wax. The tissue was sliced into 5 μm thick slices, stained with hematoxylin and/or periodic acid-Schiff (liver and kidney), and histologically evaluated via optical microscopy.

Structure (SMILES): F[P-](F)(F)(F)(F)F.O=c1cc[nH]c([S][Ru+])n1.c1ccc(-c2ccccn2)nc1.c1ccc(P(c2ccccc2)c2ccccc2)cc1.c1ccc(P(c2ccccc2)c2ccccc2)cc1 [Complex 1, trans-[Ru(2TU)(PPh3)2(bipy)]PF6]
- RQ ABCC1 [1]: 2.226
- RQ AKT1 [1]: 0.775
- RQ AKT2 [1]: 0.889
- RQ ATF2 [1]: 1.702
- RQ AURKA [1]: 0.691
- RQ AURKB [1]: 0.759
- RQ AURKC [1]: 1.565
- RQ BCL2 [1]: 1.602
- RQ BIRC5 [1]: 0.800
- RQ CDC25A [1]: 2.454
- RQ CDK1 [1]: 0.664
- RQ CDK2 [1]: 0.777
- RQ CDK4 [1]: 1.130
- RQ CDK5 [1]: 0.572
- RQ CDK7 [1]: 2.521
- RQ CDK8 [1]: 2.592
- RQ CDK9 [1]: 0.937
- RQ CTSB [1]: 0.797
- RQ CTSD [1]: 1.503
- RQ CTSL [1]: 1.271
- RQ CTSS [1]: 1.314
- RQ EGFR [1]: 1.217
- RQ ERBB2 [1]: 0.682
- RQ ERBB3 [1]: 0.915
- RQ ESR1 [1]: 0.564
- RQ ESR2 [1]: 2.165
- RQ GRB2 [1]: 1.501
- RQ GSTP1 [1]: 0.499 and 0.49
- RQ HDAC1 [1]: 0.833
- RQ HDAC2 [1]: 1.190
- RQ HDAC3 [1]: 0.989
- RQ HDAC4 [1]: 0.764
- RQ HDAC6 [1]: 0.564
- RQ HDAC7 [1]: 1.008
- RQ HDAC8 [1]: 0.970
- RQ HDAC11 [1]: 1.729
- RQ HIF1A [1]: 3.170
- RQ HRAS [1]: 0.753
- RQ HSP90AA1 [1]: 2.760
- RQ HSP90B1 [1]: 3.676
- RQ IGF1R [1]: 0.916
- RQ KRAS [1]: 1.809
- RQ MDM2 [1]: 1.685
- RQ MDM4 [1]: 2.263
- RQ MTOR [1]: 0.395 and 0.39
- RQ NFKB1 [1]: 0.451 and 0.45
- RQ NRAS [1]: 0.908
- RQ NTN3 [1]: 5.849
- RQ PARP1 [1]: 0.638
- RQ PARP4 [1]: 0.801
- RQ PDGFRB [1]: 0.964
- RQ PGR [1]: 8.929
- RQ PIK3C2A [1]: 0.855
- RQ PIK3C3 [1]: 1.001
- RQ PIK3CA [1]: 0.817
- RQ PLK1 [1]: 0.520
- RQ PLK2 [1]: 1.630
- RQ PLK3 [1]: 2.378
- RQ PLK4 [1]: 0.743
- RQ PRKCA [1]: 1.667
- RQ PRKCB [1]: 0.327
- RQ PRKCD [1]: 0.661
- RQ PRKCE [1]: 2.615
- RQ PTGS2 [1]: 7.499
- RQ RHOA [1]: 0.642
- RQ RHOB [1]: 0.437
- RQ TERT [1]: 0.604
- RQ TNKS [1]: 3.189
- RQ TOP2A [1]: 0.469
- RQ TOP2B [1]: 0.499
- RQ TP53 [1]: 1.021
- RQ TXN [1]: 0.546
- RQ TXNRD1 [1]: 1.341
- level of phospho-NF-κB p65 (S529) ([2]; 8 μM complex 1): reduced
- level of phospho-S6 (S235/S236) ([2]; 8 μM complex 1): reduced
- level of Akt1 ([2]; 8 μM complex 1, 6 μM complex 2): reduced
- level of phospho-4EBP1 (T36/T45) ([2]; 8 μM complex 1, 6 μM complex 2): not affected
- level of phospho-Akt (S473) ([2]; 8 μM complex 1, 6 μM complex 2): reduced
- level of phospho-Akt (T308) ([2]; 8 μM complex 1, 6 μM complex 2): not affected
- level of phospho-PI3K p85/p55 (T458/T199) ([2]; 8 μM complex 1, 6 μM complex 2): not affected
- level of phospho-elF4E (S209) ([2]; 8 μM complex 1, 6 μM complex 2): not affected
- level of phospho-mTOR (S2448) ([2]; 8 μM complex 1, 6 μM complex 2): reduced
- histopathological alterations of kidneys, livers, lungs [3]: minor and/or reversible
- changes in body weight or organs (liver, kidney, lung, heart) ([3]; P > 0.05): No significant changes
- histopathological changes in the hearts ([3]; data not shown): No significant changes
